Experiment [1] deals with E. coli ATCC 25922 (AECO001). The experiment is described as follows: MIC, CLSI broth microdilution. Conditions: Escherichia coli, ATCC25922, read-out: MIC AECO001, Table 1; AECO001 is ATCC25922. Format: cell-based. As to the method: (§1) Minimum inhibitory concentrations (MIC) were determined by reference Clinical and Laboratory Standards Institute (CLSI) broth microdilution methods per M7-A7 [2006]. Quality control ranges utilizing E. coli ATCC 25922, P. aeruginosa ATCC 27853 and S. aureus ATCC 29213, and interpretive criteria for comparator agents were as published in CLSI M100-S17 [2007]. Briefly, serial two-fold dilutions of the test compounds were prepared at 2× concentration in Mueller Hinton Broth. The compound dilutions were mixed in 96-well assay plates in a 1:1 ratio with bacterial inoculum. The inoculum was prepared by suspension of a colony from an agar plate that was prepared the previous day. Bacteria were suspended in sterile saline and added to each assay plate to obtain a final concentration of 5×10^5 CFU/mL. The plates were incubated at 35° C. for 20 hours in ambient air.

Experiment [2] has as its system P. aeruginosa ATCC 27853 (APAE001). Kind of experiment: MIC, CLSI broth microdilution. The settings on record: Pseudomonas aeruginosa, ATCC27853, read-out: MIC APAE001, Table 1; APAE001 is ATCC27853. Format: cell-based. The procedure: as §1

Values after ≈ are worked out from the molar mass of the structure shown. Bounds are passed on as bounds.

Take `CN[C@@H]1[C@@H](O)[C@@H](O[C@@H]2[C@@H](O)[C@H](O[C@H]3OC(CNCCN)=CC[C@H]3N)[C@@H](N)C[C@H]2NC(=O)[C@@H](O)CCN)OC[C@]1(C)O` [Example 38, 6′-(2-Amino-ethyl)-1-(4-amino-2(S)-hydroxy-butyryl)-sisomicin]: the minimal inhibitory concentration (MIC) is less than 1 µg/mL in experiment [1] and 1 to 16 µg/mL (≈ 1.69 to 27 µM) in experiment [2].
For `CN[C@@H]1[C@@H](O)[C@@H](O[C@@H]2[C@@H](O)[C@H](O[C@H]3OC(CNCC4(O)CC(N)C4)=CC[C@H]3N)[C@@H](N)C[C@H]2NC(=O)C2(O)CNC2)OC[C@]1(C)O` (stereo partly shown) [Example 47], in that order: 1 to 16 µg/mL (≈ 1.55 to 24.8 µM) and 1 to 16 µg/mL (≈ 1.55 to 24.8 µM).
Regarding `CN[C@@H]1[C@@H](O)[C@@H](O[C@@H]2[C@@H](O)[C@H](O[C@H]3OC(CNCCCCCN)=CC[C@H]3N)[C@@H](N)C[C@H]2NC(=O)[C@@H](O)CCN)OC[C@]1(C)O` [Example 44, 6′-(5-Amino-pentyl)-1-(4-amino-2(S)-hydroxy-butyryl)-sisomicin], the values for the MIC in experiment [1] and in experiment [2] were less than 1 µg/mL and 1 to 16 µg/mL (≈ 1.58 to 25.2 µM), respectively.
On to `CN[C@@H]1[C@@H](O)[C@@H](O[C@@H]2[C@@H](O)[C@H](O[C@H]3OC(CN)=CC[C@H]3NS(=O)(=O)CCN)[C@@H](N)C[C@H]2NC(=O)[C@@H](O)CCN)OC[C@]1(C)O` [Example 93, 2′-(2-Amino-ethyl-sulfonamide)-1-(4-amino-2(S)-hydroxy-butyryl)-sisomicin], for which the minimal inhibitory concentration (MIC) in experiment [1] was less than 1 µg/mL; in experiment [2] it was 1 to 16 µg/mL (≈ 1.52 to 24.4 µM).
In the case of `CN[C@@H]1[C@@H](O)[C@@H](O[C@@H]2[C@@H](O)[C@H](O[C@H]3OC(CNC[C@H]4C[C@H](N)C4)=CC[C@H]3N)[C@@H](N)C[C@H]2NC(=O)[C@@H](O)CN)OC[C@]1(C)O` [Example 59, 6′-(Methyl-trans-3-amino-cyclobutyl)-1-(3-amino-2(S)-hydroxy-propionyl)-sisomicin], the MIC in experiment [1] is less than 1 µg/mL; in experiment [2], 1 to 16 µg/mL (≈ 1.62 to 25.9 µM).
With `CN[C@@H]1[C@@H](O)[C@@H](O[C@@H]2[C@@H](O)[C@H](O[C@H]3OC(CNCC4CC4)=CC[C@H]3N)[C@@H](N)C[C@H]2NC(=O)C(O)C2CNC2)OC[C@]1(C)O` (stereo partly shown) [Example 71, 6′-Methylcyclopropyl-1-(2-(azetidin-3-yl)-2-hydroxy-acetyl)-sisomicin], the minimum inhibitory concentration (MIC) was 1 to 16 µg/mL (≈ 1.63 to 26 µM) in experiment [1] and greater than 16 µg/mL in experiment [2].
For the compound `CN[C@@H]1[C@@H](O)[C@@H](O[C@@H]2[C@@H](O)[C@H](O[C@H]3OC(CNCCO)=CC[C@H]3N)[C@@H](N)C[C@H]2NC(=O)C(O)C2CNC2)OC[C@]1(C)O` (stereo partly shown) [Example 75, 6′-(2-Hydroxy-ethyl)-1-(2-(azetidin-3-yl)-2-hydroxy-acetyl)-sisomicin], the minimal inhibitory concentration (MIC) was 1 to 16 µg/mL (≈ 1.65 to 26.5 µM) in experiment [1] and greater than 16 µg/mL in experiment [2].
For `CN[C@@H]1[C@@H](O)[C@@H](O[C@@H]2[C@@H](O)[C@H](O[C@H]3OC(CNCC(O)CO)=CC[C@H]3N)[C@@H](N)C[C@H]2NC(=O)CO)OC[C@]1(C)O` (stereo partly shown) [Example 23, 6′-(2-Hydroxy-propanol)-1-(2-hydroxy-acetyl)-sisomicin], the minimum inhibitory concentration (MIC) in experiment [1] and in experiment [2] was greater than 16 µg/mL each time.
As to `CN[C@@H]1[C@@H](O)[C@@H](O[C@@H]2[C@@H](O)[C@H](O[C@H]3OC(CNCCCN)=CC[C@H]3N)[C@@H](N)C[C@H]2NS(=O)(=O)CCN)OC[C@]1(C)O` [Example 26, 6′-(3-Amino-propyl)-1-(2-amino-ethylsulfonamide)-sisomicin], the minimum inhibitory concentration (MIC) in experiment [1] and in experiment [2] was 1 to 16 µg/mL (≈ 1.63 to 26.2 µM) each time.
With `CN[C@@H]1[C@@H](O)[C@@H](O[C@@H]2[C@@H](O)[C@H](O[C@H]3OC(CNCC(O)CN)=CC[C@H]3N)[C@@H](N)C[C@H]2NC(=O)C2(O)CCNC2)OC[C@]1(C)O` (stereo partly shown) [Example 42, 6′-(2-Hydroxy-3-amino-propyl)-1-(3-hydroxy-pyrrolidin-3-yl-acetyl)-sisomicin], the MIC in experiment [1] and in experiment [2] was 1 to 16 µg/mL (≈ 1.58 to 25.2 µM) throughout.
For the compound `CN[C@@H]1[C@@H](O)[C@@H](O[C@@H]2[C@@H](O)[C@H](O[C@H]3OC(CN)=CC[C@H]3NC(=O)C(C)N)[C@@H](N)C[C@H]2NC(=O)[C@@H](O)CCN)OC[C@]1(C)O` (stereo partly drawn) [Example 88, 2′-(2-Amino-propionyl)-1-(4-amino-2(S)-hydroxy-butyryl)-sisomicin], the minimum inhibitory concentration (MIC) in experiment [1] and in experiment [2] was 1 to 16 µg/mL (≈ 1.61 to 25.8 µM) each time.
